Data set [1] concerns HCT-116 colon carcinoma cells. The conditions noted are these: cited from earlier work.
The test system of the next data set is H460 (lung carcinoma). Briefly: MTT in vitro growth inhibition assay, H460. The following applies: Homo sapiens; for inhibition at 25 µM: NCI-H460, 25 µM of drug, 72 h, read-out: Percentage of Cell Growth Inhibition H460; for GI50: NCI-H460, 72 h drug exposure. The class given is cell-based.
Data set [2] relates to MCF10A (normal breast cell line). Briefly: MTT in vitro growth inhibition assay, MCF10A. The class given is cell-based. The following applies: Homo sapiens, MCF-10A; for inhibition at 25 µM: 25 µM of drug, 72 h, read-out: Percentage of Cell Growth Inhibition MCF10A; for GI50: normal breast cell line, 72 h drug exposure.
A further data set has as its system HT29 (colon carcinoma). Nature of the data set: MTT in vitro growth inhibition assay, HT29. The class given is cell-based. The conditions noted are these: Homo sapiens; for inhibition at 25 µM: HT-29, 25 µM of drug, 72 h, read-out: Percentage of Cell Growth Inhibition HT29; for GI50: HT-29, 72 h drug exposure.
Data set [3] relates to A2780 (ovarian carcinoma). Nature of the data set: MTT in vitro growth inhibition assay, A2780. In kind it is cell-based. The conditions noted are these: Homo sapiens; for inhibition at 25 µM: 25 µM of drug, 72 h, read-out: Percentage of Cell Growth Inhibition A2780; for GI50: 72 h drug exposure.
The next data set deals with U87 (glioblastoma). Briefly: MTT in vitro growth inhibition assay, U87. In kind it is cell-based. The conditions noted are these: for inhibition at 25 µM: 25 µM of drug, 72 h, read-out: Percentage of Cell Growth Inhibition U87; for GI50: 72 h drug exposure.
For another data set, the system named is SJ-G2 (glioblastoma). Nature of the data set: MTT in vitro growth inhibition assay, SJ-G2. The conditions noted are these: for inhibition at 25 µM: 25 µM of drug, 72 h, read-out: Percentage of Cell Growth Inhibition SJ-G2; for GI50: 72 h drug exposure. In kind it is cell-based.
Another data set relates to A431 (skin carcinoma). Nature of the data set: MTT in vitro growth inhibition assay, A431. In kind it is cell-based. The conditions noted are these: Homo sapiens; for inhibition at 25 µM: A-431, 25 µM of drug, 72 h, read-out: Percentage of Cell Growth Inhibition A431; for GI50: A-431, 72 h, 72 h drug exposure.
The next data set has as its system MCF-7 (breast carcinoma). Briefly: MTT in vitro growth inhibition assay, MCF-7. The class given is cell-based. The conditions noted are these: Homo sapiens; for inhibition at 25 µM: MCF7, 25 µM of drug, 72 h, read-out: Percentage of Cell Growth Inhibition MCF-7; for GI50: MCF7, 72 h drug exposure.
In data set [4] the test system is SMA (spontaneous murine astrocytoma). Nature of the data set: MTT in vitro growth inhibition assay, SMA. The class given is cell-based. The following applies: Mus musculus; for inhibition at 25 µM: 25 µM of drug, 72 h, read-out: Percentage of Cell Growth Inhibition SMA; for GI50: 72 h drug exposure.
The next data set has as its system BE2-C (neuroblastoma). Briefly: MTT in vitro growth inhibition assay, BE2-C. The class given is cell-based. The following applies: Homo sapiens, BE(2)-C, 72 h; for inhibition at 25 µM: 25 µM of drug, read-out: Percentage of Cell Growth Inhibition BE2-C; for GI50: 72 h drug exposure.
Data set [5] concerns Du145 (prostate carcinoma). Briefly: MTT in vitro growth inhibition assay, Du145. In kind it is cell-based. The following applies: Homo sapiens; for inhibition at 25 µM: DU-145, 25 µM of drug, 72 h, read-out: Percentage of Cell Growth Inhibition Du145; for GI50: DU-145, 72 h, 72 h drug exposure.
Data set [6] concerns panel of 11 cancer cell lines and one normal cell line. Nature of the data set: Cytotoxicity across the whole cell line panel (MTT). In kind it is cell-based. The following applies: for activity at the initial screening concentration (to proceed to GI50 determination): 25 µM single dose. The text has this: With the desired bolinaquinone analogues 12–43 in hand, we examined their cytotoxicity against a panel of 11 tumour cell lines: HT29 (colon carcinoma), U87 and SJ-G2 (glioblastoma), MCF-7 (breast carcinoma), A2780 (ovarian carcinoma), H460 (lung carcinoma), A431 (skin carcinoma), Du145 (prostate carcinoma), BE2-C (neuroblastoma), MIA (pancreatic carcinoma), SMA (spontaneous murine astrocytoma) and a normal breast cell line (MCF10A). The inclusion of the MCF-10A cell line allowed a determination of a crude measure of relative toxicity while noting that the ultimate arbiter of toxicity requires in vivo evaluation. All analogues were initially screened at a 25 µM drug concentration.
Stock solutions were prepared as follows and stored at −20°C: drugs were stored as 40 mM solutions in DMSO. All cell lines were cultured in a humidified atmosphere 5% CO2 at 37°C. The cancer cell lines were maintained in Dulbecco's modified Eagle's medium (DMEM) (Trace Biosciences, Australia) supplemented with 10% fetal bovine serum, 10 mM sodium bicarbonate, penicillin (100 IU ml^−1), streptomycin (100 µg ml^−1) and glutamine (4 mM). The non-cancer MCF10A cell line was cultured in DMEM:F12 (1 : 1) cell culture media, 5% heat-inactivated horse serum, supplemented with penicillin (50 IU ml^−1), streptomycin (50 µg ml^−1), 20 mM Hepes, L-glutamine (2 mM), epidermal growth factor (20 ng ml^−1), hydrocortisone (500 ng ml^−1), cholera toxin (100 ng ml^−1) and insulin (10 ug ml^−1).
Cells in logarithmic growth were transferred to 96-well plates. Cytotoxicity was determined by plating cells in duplicate in 100 µl medium at a density of 2500–4000 cells per well. On day 0 (24 h after plating), when the cells were in logarithmic growth, 100 μl of medium with or without the test agent was added to each well. After 72 h, drug exposure growth inhibitory effects were evaluated using the MTT (3-[4,5-dimethylthiazol-2-yl]-2,5-diphenyl-tetrazolium bromide) assay and the absorbance read at 540 nm. Percentage growth inhibition was determined at a fixed drug concentration of 25 µM. A value of 100% is indicative of complete cell growth inhibition. Those analogues showing appreciable percentage growth inhibition underwent further dose–response analysis allowing for the calculation of a GI50 value. This value is the drug concentration at which cell growth is 50% inhibited based on the difference between the optical density values on day 0 and those at the end of drug exposure.

Data set [7] deals with MIA (pancreatic carcinoma). Nature of the data set: MTT in vitro growth inhibition assay, MIA. The conditions noted are these: for inhibition at 25 µM: 25 µM of drug, 72 h, read-out: Percentage of Cell Growth Inhibition MIA; for GI50: 72 h drug exposure. The class given is cell-based.
Where [8] appears, read: average over the cell line panel, read-out: average GI50.

The structures appear in SMILES notation. Entries after “also recorded” stand apart in the source; their conditions may differ. Read-outs that look alike come from different tables or passages of the source.

Data on five compounds can be found in PMC5936891, “A focused library synthesis and cytotoxicity of quinones derived from the natural product bolinaquinone” (Royal Society Open Science, 2018).

By GI50 is commonly meant the concentration that inhibits growth by half. In the case of `COC1=CC(=O)C(O)=C(C[C@@]2(C)[C@H](C)[C@@H]3CCCC(C)(C)C3=C[C@@H]2C)C1=O` [compound 3, mamanuthaquinone], the concentration for 50% growth inhibition (GI50) in data set [1] is 5.58 µM.

The inhibition is the percentage by which the read-out fell short of the control. The melting point is the temperature, or range, at which the solid turns liquid. In the case of `COC1=CC(=O)C(OC)=C(c2ccc3ccccc3c2)C1=O` [compound 24, 2,5-Dimethoxy-3-(naphthalene-3-yl)cycloheza-2,5-diene-1,4-dione], the melting point lay in the range of 137 to 139 °C. The inhibition at 25 µM in the data set with H460 (lung carcinoma) worked out at 12 ± 4%. For the same compound, in [2], the inhibition at 25 µM was determined as 13 ± 6%. Also, in the data set on HT29 (colon carcinoma), the inhibition at 25 µM was less than 10%. Moreover, the inhibition at 25 µM in [3] was found to be 54 ± 15%. For the same compound, the inhibition at 25 µM with U87 (glioblastoma) is 15 ± 4%. Moreover, the inhibition at 25 µM with SJ-G2 (glioblastoma) came to 20 ± 4%. Moreover, in the data set on A431 (skin carcinoma), the inhibition at 25 µM was less than 10%. Moreover, the inhibition at 25 µM in the data set on MCF-7 (breast carcinoma) is 22 ± 6%. In addition, in data set [4], the inhibition at 25 µM was determined as 31 ± 10%. Further, the inhibition at 25 µM in the data set with BE2-C (neuroblastoma) was found to be 65 ± 20%. Also, in [5], the inhibition at 25 µM came out at 11%. The “activity at the initial screening concentration (to proceed to GI50 determination)” value in data set [6] was “not sufficiently active; also recorded: inactive”. Moreover, the inhibition at 25 µM in data set [7] is less than 10%.

Take `COC1=CC(=O)C(OC)=C(c2ccc(OC)c(OC)c2)C1=O` [compound 23, 2,5-Dimethoxy-3-(3,4-dimethoxyphenyl)cyclohexa-2,5-diene-1,4-dione]: the melting point fell in the range of 135 to 137 °C. Besides, in the data set with H460 (lung carcinoma), the inhibition at 25 µM came out at 77 ± 4% and the GI50 is 15 ± 2 µM. Besides, in data set [2], the inhibition at 25 µM was 62 ± 4% and the GI50 was 19 ± 1.3 µM. Further, in the data set on HT29 (colon carcinoma), the inhibition at 25 µM was more than 100% and halving of growth (GI50) required 11 ± 0.17 µM. In data set [3], the inhibition at 25 µM was more than 100% and the GI50 came out at 3800 ± 750 nM. For the same compound, in the data set with U87 (glioblastoma), the inhibition at 25 µM was more than 100% and it took 9.5 ± 1.2 µM to inhibit growth by half (GI50). Further, in the data set with SJ-G2 (glioblastoma), the inhibition at 25 µM was more than 100% and halving of growth (GI50) required 12 ± 0.67 µM. In the data set with A431 (skin carcinoma), the inhibition at 25 µM came to 95 ± 4% and the GI50 was determined as 13 ± 0.58 µM. In the data set on MCF-7 (breast carcinoma), the inhibition at 25 µM is more than 100% and growth was halved (GI50) at 6.1 ± 1.1 µM. For the same compound, in [4], the inhibition at 25 µM is more than 100% and the GI50 was 3.9 ± 0.54 µM. Further, in the data set on BE2-C (neuroblastoma), the inhibition at 25 µM was more than 100% and halving of growth (GI50) required 3000 ± 350 nM. In [5], the inhibition at 25 µM is 81 ± 4% and the 50% growth inhibitory concentration (GI50) was determined as 13 ± 0.58 µM. Further, the “cytotoxicity spectrum across the panel” value in [6] is recorded as “broad-spectrum active”. Also, in [6] (setting [8]), the GI50 turned out to be 10.2 µM. Besides, in data set [6] (span over the cell line panel, read-out: GI50 values across the cell lines examined (range)), the concentration for 50% growth inhibition (GI50) is 3 to 15 µM. In data set [7], the inhibition at 25 µM was more than 100% and the GI50 was found to be 4.8 ± 0.91 µM.

`CCCNC1=CC(=O)C(NCCC)=C(c2ccccc2-c2ccccc2)C1=O` [compound 41, 3-(Biaryl-2-yl)-2,5-bis-(propylamino)cyclohexa-2,5-diene-1,4-dione]: the melting point lay in the range of 177 to 179 °C. Also, in the data set with H460 (lung carcinoma), the inhibition at 25 µM was determined as 62 ± 1% and the 50% growth inhibitory concentration (GI50) turned out to be 2.3 ± 0.1 µM. Also, in data set [2], the inhibition at 25 µM is 83 ± 2% and growth was halved (GI50) at 1.7 ± 0.2 µM. Further, in the data set on HT29 (colon carcinoma), the inhibition at 25 µM worked out at 75 ± 2% and the GI50 came out at 1.9 µM. For the same compound, in [3], the inhibition at 25 µM came to 68 ± 2% and growth was halved (GI50) at 2000 ± 100 nM. In the data set with U87 (glioblastoma), the inhibition at 25 µM amounted to 82 ± 3% and the 50% growth inhibitory concentration (GI50) was determined as 5.1 ± 1 µM. In the data set on SJ-G2 (glioblastoma), the inhibition at 25 µM worked out at 60 ± 2% and halving of growth (GI50) required 3.5 ± 1 µM. Further, in the data set with A431 (skin carcinoma), the inhibition at 25 µM amounted to 90 ± 1% and the GI50 was 2 ± 0.1 µM. Further, in the data set on MCF-7 (breast carcinoma), the inhibition at 25 µM was determined as 70 ± 3% and the 50% growth inhibitory concentration (GI50) was 2 ± 0.1 µM. Moreover, in data set [4], the inhibition at 25 µM came to 68 ± 6% and growth was halved (GI50) at 3.3 ± 1 µM. In addition, in the data set on BE2-C (neuroblastoma), the inhibition at 25 µM stood at 74 ± 7% and the GI50 worked out at 1900 nM. For the same compound, in data set [5], the inhibition at 25 µM stood at 71 ± 2% and the GI50 was 1.9 ± 0.1 µM. Further, the “activity at the initial screening concentration (to proceed to GI50 determination)” value in data set [6] is on record as “sufficient activity”. Moreover, the “potency enhancement over parent analogue” value in [6] (41 vs parent 29, 43 vs parent 33, on introduction of amine substituents) was “greater than or equal to 20 fold”. In addition, in data set [6] (setting [8]), the GI50 was found to be 2.5 µM. Also, in data set [7], the inhibition at 25 µM stood at 76 ± 1% and the 50% growth inhibitory concentration (GI50) was 1.9 µM.

Turning to `COC1=CC(=O)C(O)=C(C[C@@]2(C)CC[C@]3(C)C(C)=CCC[C@H]3[C@H]2C)C1=O` [compound 1, bolinaquinone], the GI50 in data set [1] (50% growth inhibition) was 5.3 µM.
